This is an account of results in patent US8551723B2, “Tyrosine kinase-inducible domains” (University of Delaware, priority 2010, dated 2013).

A short description of assay [1]: Dissociation constant determination of peptide-Tb^3+ complexes by Tb^3+ luminescence titration. Format: binding. As for the experimental part: (§1) All experiments were conducted on a Photon Technology International fluorescence spectrometer model QM-3/2003 with a CW source and a Hamamatsu R928PMT using 10 nm excitation and emission slit widths. A 495 nm highpass filter (model 495FG03-25 AM-53074; Andover Corporation) was used on the emission monochromator. Spectra were acquired at room temperature with a scan rate of 1 nm per second. In dissociation constant determinations, the observed luminescence (photon counts s^−1) was not background-corrected and represents the raw fluorescence data. In the presence of buffer only (no peptide, no metal), the luminescence at 544 nm is similar to the luminescence observed in the presence of peptide at the limit of low concentrations of Tb^3+ (approximately 1.8×10^5 photon counts s^−1). Spectral data (FIGS. 3a, […]) represent the average of at least three independent trials and correspond to the averaged spectra that yielded the data points at the given Tb^3+ concentrations in the dissociation constant determination plots. Spectral data in the manuscript were background-corrected. Peptide solutions were prepared by the dilution of peptide stock solutions into buffer containing 5 mM HEPES (pH 7.8) and 100 mM NaCl (final concentrations). Spectra were acquired in 10 mm quartz fluorescence cells (Starna). Tb^3+ titrations were conducted by dilution of a Tb^3+ solution into a peptide solution. All TbCl3 solutions were standardized by titration with a standard solution of EDTA (1 mM) in the presence of xylenol orange indicator (10 μM) and sodium acetate buffer (pH 6.0, 10 mM). EDTA (1 mM) was added to 500 μL of a 1 mM Tb^3+ solution diluted from a 10 mM stock until the end point was reached; Tb^3+ concentration was determined based on 1:1 binding. Each individual emission spectrum represents an independently prepared solution of peptide and metal. The Tb^3+ emission band at 544 nm was used to evaluate metal binding.
To determine dissociation constants for Tb^3+-peptide complexes, Tb^3+ titrations were conducted in solutions of 5 mM HEPES (pH 7.8) and 100 mM NaCl. Each data point represents an independently prepared solution of peptide and metal. Observed luminescence (photon counts s^−1) at the emission maximum of 544 nm were plotted against Tb^3+ concentration to calculate the final Kd. Data points indicate the average of at least three independent titrations. Error bars indicate standard error. […] The quadratic equation solution to the dissociation constant (equation 1) was employed to generate an accurate solution to the binding equilibrium under conditions when the dissociation constant, peptide concentration, and metal concentration may be similar. For phosphorylated pKID-pTyr11, the dissociation constant was also measured in the presence of 2 mM Mg^2+ and 100 μM Ca^2+ to study the effect of these metals on Tb^3+-peptide complex formation.

Assay [2] is described as follows: Terbium luminescence spectra of non-phosphorylated versus phosphorylated peptides. Particulars: 10 μM peptide, 10 mM HEPES (pH 7.8), 100 mM NaCl, excitation 280 nm. As for the experimental part:
FIGS. 3a, 3e and 3f show the luminescence spectra of 10 μM non-phosphorylated (red) and phosphorylated (blue) (a) pKID-pTyr11, (e) pKID-pTyr15a, and (f) pKID-pTyr15b, in the presence of (a, f) 20 μM Tb^3+ or (e) 80 μM Tb^3+. Experiments were conducted in water with 10 mM HEPES (pH 7.8) and 100 mM NaCl with excitation at 280 nm. […] The fold luminescence differentiation between non-phosphorylated and phosphorylated peptides depends on the relative Tb^3+ affinities of the peptides and on the Tb^3+ concentration. FIGS. 3b, 3c, and 3d show the TOCSY spectra of phosphorylated pKID-pTyr11 in the absence (red) and presence (blue) of La^3+ indicating metal-induced peptide folding: (b) H^N—Hα region; (c) H^N—Hβ region; (d) aromatic region.
as §1, with “Peptide solutions were prepared by the dilution of peptide stock solutions into buffer containing 5 mM HEPES (pH 7.8) and 100 mM NaCl (final concentrations).” left out, “Tb^3+ titrations were conducted by dilution of a Tb^3+ solution into a peptide solution. All TbCl3 solutions were standardized by titration with a standard solution of EDTA (1 mM) in the presence of xylenol orange indicator (10 μM) and sodium acetate buffer (pH 6.0, 10 mM).” left out, “Each individual emission spectrum represents an independently prepared solution of peptide and metal. The Tb^3+ emission band at 544 nm was used to evaluate metal binding.” left out

Setting [3] is: peptide-Tb^3+ complex, 10 μM peptide, 5 mM HEPES (pH 7.8), 100 mM NaCl.
[4] abbreviates: 10 μM peptide, footnote a: calculated by defining maximum luminescence as equal to that of the phosphorylated peptide-Tb^3+ complex (no saturation).

The Kd is the free concentration of one partner at which half of the binding sites on the other are occupied at equilibrium, for simple one-to-one binding. In assay [1] (setting [3]), “Ac-DKNADGWIDAAYK-NH2 [non-phosphorylated pKID-pTyr12, control peptide with Tyr at residue 12]” displayed a Kd of 6470 µM.

“DKNADGWIDAEAK [EF Control-E11, control peptide with Glu at residue 11, reference compound]” came in with a Kd in assay [1] (setting [3]) of 1820 ± 140 µM.

Substance “Ac-DKDGDGWISPAAAKpYAK-NH2 [phosphorylated pKID-pTyr15b]” gave a Kd in assay [1] (setting [3]) of 47 ± 5 µM. Moreover, the “fold greater luminescence of phosphorylated than non-phosphorylated peptide” value in assay [2] (20 μM Tb^3+) turned out to be 10.1 fold.

Consider “Ac-DKDGDGWISPAAAKYAK-NH2 [non-phosphorylated pKID-pTyr15b]”, for which the Kd in assay [1] (setting [4]) was 1930 µM.

With “Ac-DKNADGWIDAAAAKYAK-NH2 [non-phosphorylated pKID-pTyr15a]”, in assay [1] (setting [4]), the Kd is 3200 µM.

Consider “Ac-DKNADGWIDAApYK-NH2 [phosphorylated pKID-pTyr12]”, for which, in assay [1] (setting [3]), the Kd was found to be 209 ± 32 µM.

As to “Ac-DKNADGWIDApYAK-NH2 [phosphorylated pKID-pTyr11, pY indicates phosphotyrosine]”, the “Tb^3+ binding in the presence of competing metals” value in assay [1] (in the presence of 100 μM Ca^2+ and 2 mM Mg^2+) is “identical”. In addition, the Kd in assay [1] (peptide-Tb^3+ complex, 2 μM peptide with 2 mM Mg^2+ and 100 μM Ca^2+) was 30 µM; in assay [1] (peptide-Tb^3+ complex, 2 μM peptide, 5 mM HEPES (pH 7.8), 100 mM NaCl) it was 32 µM; in assay [1] (setting [3]), 54 ± 9 µM. In addition, the “fold greater Tb^3+ affinity than the non-phosphorylated peptide” value in assay [1] (phosphorylated versus non-phosphorylated peptide) is on record as 35 fold. Also, the “fold greater luminescence of phosphorylated than non-phosphorylated peptide” value in assay [2] (20 μM Tb^3+) turned out to be 6.4 fold.

For the substance “Ac-DKNADGWIDAAAAKpYAK-NH2 [phosphorylated pKID-pTyr15a]”, binding in assay [1] (setting [3]) was characterised by a dissociation constant (Kd) of 217 ± 21 µM. In addition, the “fold greater luminescence of phosphorylated than non-phosphorylated peptide” value in assay [2] (80 μM Tb^3+) is 17.6 fold.

“DKNADGWIDAAEK [EF Hand-E12, EF Hand consensus peptide with Glu at residue 12, reference compound]”: in assay [1] (setting [3]), the Kd was found to be 88 ± 8 µM.

In assay [1] (setting [3]), “Ac-DKNADGWIDAYAK-NH2 [non-phosphorylated pKID-pTyr11, model tyrosine kinase-inducible domain peptide, Tyr at residue 11]” displayed a Kd of 1900 ± 280 µM.
